From patent US8608961B2, “Method for affinity chromatography of antithrombin III” (Aventis Pharma S.A., priority 2005, dated 2013)

Test system: factor Xa
Assay: anti-Xa activity of fractions separated by ATIII affinity chromatography
Type: biochemical
Conditions: fractions of LMWH (hexasaccharides) separated on ATIII affinity column 1 (protection: enoxaparin) or column 2 (protection: heparin); hexasaccharide for comparison
Description: The composition of the elution fractions may then be analyzed according to methods well known to those skilled in the art. Thus, if the fractions analyzed comprise oligosaccharides, those skilled in the art may use the analytical methods described in the prior art: for example and in a nonlimiting manner, capillary electrophoresis, MALDI-TOF mass spectrophotometry, high performance liquid chromatography. Those skilled in the art may also use a biological assay, such as the factor Xa inhibition assay.
In order to corroborate the structural analysis, the anti-Xa activities of the fractions having affinity and not having affinity, separated in column 1 (protection: enoxaparin), were determined.

**Q.** Which anti-Xa activity does the source give for “ΔUA-(1→4)α-GlcNAc(6S)-(1→4)β-GlcA-(1→4)α-GlcNS(NS,3,6S)-(1→4)β-IdA2S-(1→4)α-GlcNS(NS,6S)” here?
**A.** 650-700 IU/mg
